Reference: patent US20240317826A1, “COMPOSITIONS AND METHODS FOR TREATING AND/OR I[…] AGENT FOR TREATING HIV-1 INFECTIONS” (priority 2021, published 2024)
Entries after “also recorded” stand apart in the source; their conditions may differ.

Assays:
[1] = test system: HIV-1 particle production; assay: Particle production (p24) in 293T cells transfected with pNL4-3 in the presence of stapled peptides; format: cell-based; settings: p24 in virions and cell lysates
Procedure: FIG. 10A-FIG. 10B show the mechanism of HIV-1 inhibition by Stapled peptides. […] (1) Transfection of pNL4-3 plasmid in to 293T cells in the presence of stapled peptides and determine the particle production by analyzing p24 in the supernatant and cell lysates. (2) Virions produced are analyzed for their infectivity in the absence of stapled peptides. (3) Virions are subjected to Transmission Electron Microscopy (TEM) to determine the particle morphogenesis. (4) Purified and concentrated virions are subjected to Western blot analysis for the presence of INI1.
We hypothesized that INI1-derived Stapled peptides and drugs target IN and disrupt IN/RNA and IN/INI1 interactions. […] To test this hypothesis and to determine the mechanism of inhibition by stapled peptides, we tested the effect of stapled peptides on late events (production of HIV-1 particles and particle morphogenesis) and further tested the infectivity of particles that are produced (FIG. 10a).

[2] = test system: HIV-1 virion morphogenesis; assay: TEM analysis of morphology of virions produced in the presence of stapled peptides; format: cell-based; settings: ~200 virions each
From the text: FIG. 12A-FIG. 12C show effects of stapled peptides on virion morphogenesis and incorporation of INI1. […] The middle panel is the expanded version and the lower panel represents the carton of the two viral particles from the middle panel. Note the empty capsid shell and eccentric electron dense material, typical of morphologically defective virions. […] About 200 virions each were scored to quantify four different types of morphological forms—Conical (Co), Eccentric (Ec), Immature (Im) and Unclear (Uc).
To determine if the virions produced in the presence of stapled peptides have similar defect in virion morphogenesis, we carried out TEM analysis of the virions (˜200 each).

HIV-1 virions = assay: Infectivity in CEM-GFP cells of virions produced in the presence of stapled peptides; format: cell-based; settings: virions from 293T cells, 5 ng p24, infection of CEM-GFP cells in the absence of stapled peptides; GFP and p24
Procedure: FIG. 11A and FIG. 11B show infectivity of virions in CEM GFP cells produced in 293T cells that were treated with various stapled peptide (at 5 μM concentration) or DMSO. Equal amounts of virions treated with stapled peptides were used to infect CEM-GFP cells and the infected cells were imaged on days 1, 3, 6, 9 and 12 (FIG. 11A) and subjected to p24 ALphaLisa (FIG. 11B). FIG. 11C and FIG. 11D show Infectivity of the virions produced in the presence of increasing concentrations of stapled peptide during production in 293T cells. The 293T cells transfected with pNL4-3 were treated with increasing concentrations of stapled peptides and equal amount of virions from these cells were used to infect CEM-GFP cells. The infected cells were imaged on day 6 (FIG. 11C) and subjected to p24 ALphaLisa (FIG. 11D).
To determine the infectivity of virions produced in the presence of DMSO (DMSO-V), SP-38 (SP38-V), SP-80 (SP80-V) and SP83-D225G (SP83-V), we used equal amounts (5 ng p24) of virions to infect CEM-GFP cells in the absence of stapled peptides (FIGS. 11a and c). […] Replication of the virus was monitored by GFP expression in […] and also by assaying for the production of p24 in the culture supernatants (FIGS. 11a-d).

IN-TAR RNA interaction = target: T1, IN-TAR RNA interaction (Human immunodeficiency virus type 1 group M subtype B, UniProt P04585); assay: Alpha interaction assay: effect of stapled peptides on IN-TAR RNA interaction; format: binding, HIV-1; settings: in vitro
T1 construct: made in house; host or cells: bacteria (E. coli inferred from the pGEX vector)
Procedure: (§1) FIG. 8A-FIG. 8D show quantitative alpha interaction assay to determine the effect of stapled peptides on the interaction of IN and IN-CTD with INI1 and INI1183-304 or TAR RNA. […] Fixed concentrations of GST-IN, 6His-INI1, and TAR RNA were incubated with increasing concentration of stapled peptides and the interaction was detected as Alpha Score. The IC50 values were determined by fitting the data to a four-parameter dose-response curve using Graph Pad prism. All the graphs represent the average of three independent experiments (Mean+/−SEM).
(§2) AlphaScreen proximity assay to detect the protein-protein and protein-RNA interactions. AlphaScreen assay was carried out using PerkinElmer Alpha-Lisa-6His Acceptor beads (Catalogue #AL128C), Alpha-Screen-GST donor beads (Catalogue #6765300), GST-tagged and His-tagged proteins for protein-protein interactions; and Alpha-Screen Streptavidin donor beads (Catalogue #6760002 S), Alpha-Lisa-GST acceptor beads (Catalogue #AL110C), Biotin-labeled RNA and GST-tagged proteins for protein-RNA interactions. The reaction was carried out according to the manufacturer's protocol in a reaction buffer contacting (25 mM HEPES pH 7.4, 100 mM NaCl (or 500 mM NaCl), 1 mM DTT, 1 mM MgCl2 and BSA 1 mg ml/ml). The mixture of proteins or protein and RNA were incubated for 1 hr at room temperate with shaking in a multi micro-plate shaker and then 20 ag ml/ml accepter beads were added and incubated for additional 1 h with shaking. Finally, 20 ag ml^−1 of donor beads were added and further incubated for 1 hr. The Alpha score readings were measured using Alpha-compatible Envision 2105 multi-plate reader (Perkin-Elmer). All the experiments related to this method were carried out 3 to 5 times and data were analyzed by using Graph Pad Prism 9 version 9.0.0 (GraphPad Software, CA). The RNA sequences used in this assay are listed in the Table 6d and were obtained from Integrated DNA technology.
(§3) These peptides were tested for their ability to disrupt the interaction between IN-INI1 and IN-TAR RNA in vitro.

IN-INI1 interaction = target: T2, IN-INI1 interaction (Human immunodeficiency virus type 1 group M subtype B, UniProt P04585); assay: Alpha interaction assay: effect of stapled peptides on IN-INI1 interaction; format: binding, HIV-1; settings: in vitro
T2 construct: made in house; host or cells: bacteria (E. coli inferred from the pGEX vector)
Procedure: as §1, §2, §3

Row | Substance | effect on particle production [1] | virion particle morphology [2] | infectivity of virions produced in the presence of peptide (HIV-1 virions) | IC50, inhibition of IN-TAR RNA interactions (IN-TAR RNA interaction) | IC50, inhibition of IN-INI1 interactions (IN-INI1 interaction) | inhibition of IN-TAR RNA interactions (IN-TAR RNA interaction) | inhibition of IN-INI1 interactions (IN-INI1 interaction)
1 | lys-Leu-Met-Thr-Pro-Glu-Met-Phe-S5-Glu-Ile-Leu-S5-Cys-Asp-Leu-Asn [SP38] | did not affect | large number of morphologically defective “eccentric” particles and very few conical capsids; also recorded: increased proportion of eccentric virions | defective for infection; also recorded: produced non-infection virions | low nanomolar | low nanomolar |  | 
2 | lys-Leu-Met-Thr-Pro-Glu-Met-Phe-S5-Glu-Ile-Leu-S5-Cys-Gly-Leu-Asn [SP83] |  |  |  |  |  | not | not
